# Results taken from patent US7153822B2, “Compositions and methods for modulating connexin hemichannels” (Wyeth, priority 2002, dated 2006).
# Key:
# infarcted mice = assay: bone marrow cell transplantation after myocardial infarction (design of Orlic et al); type: in vivo; settings: repeated administration during the proliferation process
# From the text: Myocardial infarction leads to loss of tissue and impairment of cardiac performance. The remaining myocytes are unable to reconstitute the necrotic tissue, and the post-infarcted heart deteriorates with time. Injury to a target organ is sensed by distant stem cells, which migrate to the site of damage and undergo alternate stem cell differentiation; these events promote structural and functional repair. This high degree of stem cell plasticity prompted Orlic et al (Nature 410, 701–705 (2001)) to test whether dead myocardium could be restored by transplanting bone marrow cells in infarcted mice. They sorted lineage-negative (Lin−) bone marrow cells from transgenic mice expressing enhanced green fluorescent protein by fluorescence-activated cell sorting on the basis of c-kit expression. Shortly after coronary ligation, Lin− c-kitPOS cells were injected in the contracting wall bordering the infarct. […] The developing tissue comprised proliferating myocytes and vascular structures. Their studies indicate that locally delivered bone marrow cells can generate de novo myocardium, ameliorating the outcome of coronary artery disease. […]
# connexin 43 (Cx43) = assay: immunoprecipitation and immunoblot of phosphorylated connexin 43; type: cell-based; settings: cultured H9c2 cardiomyocytes
# Procedure: H9c2 cells were seeded in 24-multi well dishes in a density of 7,900 cells/cm^2 (˜15,000 cells/well) and grown for 3 days in MEM suplemented with 10% foetal calf serum (FCS) and 1000 units penicillin/1000 μg streptomycin (pen/strep) in an atmosphere of 5% CO2 and 100% humidity at 37° C.
# The labelled cells were incubated in Triton X-100 lysis buffer (˜5*10^7 cells/ml) for 1 hr at 4° C. The lysate is centrifuged 30 min at 20,000*g for 30 min. The supernatant was precleared by adding 10 ul Sepharose per 200 μl supernatant. The precleared supernatant were then added 0.5–1 μg phospho-tyrosine or phospho-serine antibodies (Sigma) and incubated for 1.5 hr at 4° C. in an orbital shaker. The antibody-complex was then captured by incubation with 50 μl of a 1:1 slurry of protein G Sepharose for 1.5 hr. Finally the complex were extensively washed with 0.1% (w/v) Triton X-100, 50 mM Tris, pH 7.4, 300 mM NaCl and 5 mM EDTA.
# The complexes were loaded onto a 12% SDS gel and blotted onto a PVDF membrane. The membrane is blocked with 0.1% Tween 20, 50 mM Tris, pH 7.4, 300 mM NaCl, 5% dry milk (TBST) for minimum 2 h. The membrane was subsequently incubated with connexin 43 specific antibodies (Zymed) for 1.5 h at RT and developed with ECL+ (Amersham).
substance,measurement,setting,value
Ac-Gly-Asn-Tyr-NH2 [Compound 2],connexin 43 expression,infarcted mice,increase in connexin 43 expression
same,tyrosine phosphorylation of connexin 43,connexin 43 (Cx43),phosphorylation of Cx43 tyrosine
